Results taken from patent publication US20080039513A1, “Marine Compounds with Calcium Channel Blocking Properties for the Treatment of Cognitive or Neurodegenerative Diseases” (priority 2004, published 2008).
Like-named read-outs stand apart in the source and are kept apart here.

How the values were obtained:
[1] = target: T1, AChE (from bovine erythrocytes) (Bos taurus, UniProt P23795); assay: AChE inhibition (Ellman colorimetric method); type: biochemical; conditions: read-out: % inhibition AChE (concentration); for inhibition at 30 µM: 3 × 10^−5 M
T1 construct: AChE (Sigma Chemical Co. from bovine erythrocytes); purchased Sigma Chemical Co; host or cells: bovine erythrocytes
T1 sequence (P23795 31-614 isoform P23795-2 limits assumed): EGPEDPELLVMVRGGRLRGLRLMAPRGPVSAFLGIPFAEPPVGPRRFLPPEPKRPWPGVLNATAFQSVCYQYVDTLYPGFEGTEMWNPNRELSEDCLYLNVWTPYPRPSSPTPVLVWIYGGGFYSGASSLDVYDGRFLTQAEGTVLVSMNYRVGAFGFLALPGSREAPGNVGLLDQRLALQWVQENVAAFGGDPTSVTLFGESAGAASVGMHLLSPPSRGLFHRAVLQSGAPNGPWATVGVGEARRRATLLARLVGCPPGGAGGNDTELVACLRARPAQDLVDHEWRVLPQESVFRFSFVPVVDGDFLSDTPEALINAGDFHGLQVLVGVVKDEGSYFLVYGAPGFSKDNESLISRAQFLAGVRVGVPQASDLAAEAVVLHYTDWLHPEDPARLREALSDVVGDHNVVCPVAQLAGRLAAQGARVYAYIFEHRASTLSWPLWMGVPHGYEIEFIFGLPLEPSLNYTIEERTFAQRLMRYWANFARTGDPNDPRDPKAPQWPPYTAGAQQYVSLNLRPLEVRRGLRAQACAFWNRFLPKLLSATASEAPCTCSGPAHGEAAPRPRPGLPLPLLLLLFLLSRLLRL
Procedure: AChE inhibitory activity was evaluated at 30° C. by the colorimetric method reported by Ellman (Ellman, G. L. et al., 1961, Biochem Pharmacol, 7, 88-95). The assay solution consisted of 0.1 M phosphate buffer pH 8, 0.3 mM 5,5′-dithiobis (2-nitrobenzoic acid) (DTNB, Ellman's reagent), 0.02 units AChE (Sigma Chemical Co. from bovine erythrocytes), and 0.5 mM acetylthiocholine iodide as the substrate of the enzymatic reaction. The compounds tested were added to the assay solution and pre incubated with the enzyme for 5 min at 30° C. After that period, the substrate was added. The absorbance changes at 405 nm were recorded for 5 min with a microplate reader Digiscan 340T, the reaction rates were compared, and the percent inhibition due to the presence of test compounds was calculated. The reaction rate was calculated with, at least, triplicate measurements, and the percent inhibition due to the presence of test compound was calculated relative to the compound-free control.

VDCC = VDCC blockade: intracellular Ca2+ (Fluo-4) in SH-SY5Y cells on depolarization with 60 mM KCl; type: cell-based, human
Procedure: SH-SY5Y cells were plated at 5×10^5 cells per well into Black/Clear Bottom 96-well culture plate, 48 hours before treatment. Cells were loaded with Fluo-4, 5 μM and pluronic acid, 0.1%, for 30 min at 37° C., 5% CO2, following a incubation of 15 min at RT in Krebs-HEPES solution. Immediately cells are exposed to the samples at different concentrations for 10 min. […] After the treatment, the fluorescence is measured in a Fluostar Optima plate reader (BMG) in response to depolarization with 60 mM KCl. The excitation wavelength was 485 nm, and that of emission 520 nm. […] Three compounds isolated from this extract have shown calcium channel blocking properties in SH-SY5Y neuroblastoma cells.

[2] = tested on: human neuroblastoma cell line SH-SY5Y; type: cell-based; conditions: for Toxicity (in words): at 10 μM
Procedure: The cytotoxicity effect of the molecules was tested in the human neuroblastoma cell line SH-SY5Y. These cells were cultured in 96-well plates in minimum essential medium, Ham's F12 medium, supplemented with 10% fetal bovine serum, 1% glutamine and 1% penicillin/streptomycin, and grown in a 5% CO2 humidified incubator at 37° C. Cells were plated at 10^4 cells for each well, at least, 48 hours before treatment. Cells were exposed for 24 hours to the compounds at different concentrations (from 10^−5 to 10^−9), quantitative assessment of cell death was made by measurement of the intracellular enzyme lactate dehydrogenase (LDH) (citotoxicity detection kit, Roche). The quantity of LDH was measured was evaluated in a microplate reader Anthos 2010, at 492 and 620 nm. Controls were taken as 100% viability.

BuChE from human serum = target: T2, BuChE from human serum (Homo sapiens, UniProt P06276); assay: BuChE inhibition (Ellman colorimetric method); type: biochemical
T2 construct: 0.01 units BuChE from human serum; from tissue; host or cells: human serum
Procedure: BuChE inhibitory activity was evaluated at 30° C. by the colorimetric method reported by Ellman (Ellman, G. L. et al., 1961, Biochem Pharmacol, 7, 88-95). The assay solution consisted of 0.01 units BuChE from human serum, 0.1 M sodium phosphate buffer pH 8, 0.3 mM 5,5′-dithiobis (2-nitrobenzoic acid) (DTNB, Ellman's reagent), and 0.5 mM butyrylthiocholine iodide as the substrate of the enzymatic reaction. Enzyme activity was determined by measuring the absorbance at 405 nm during 5 minutes with a microplate reader Digiscan 340T. The tested compounds were preincubated with the enzyme for 10 minutes at 30° C. The reaction rate was calculated with, at least, triplicate measurements.

AChE peripheral site = target: T3, AChE peripheral site (Bos taurus, UniProt P23795); assay: Propidium competition (fluorescence); type: binding; conditions: 30 μM compound; 5 μM AChE, 20 μM propidium iodide
T3 sequence (P23795 31-613): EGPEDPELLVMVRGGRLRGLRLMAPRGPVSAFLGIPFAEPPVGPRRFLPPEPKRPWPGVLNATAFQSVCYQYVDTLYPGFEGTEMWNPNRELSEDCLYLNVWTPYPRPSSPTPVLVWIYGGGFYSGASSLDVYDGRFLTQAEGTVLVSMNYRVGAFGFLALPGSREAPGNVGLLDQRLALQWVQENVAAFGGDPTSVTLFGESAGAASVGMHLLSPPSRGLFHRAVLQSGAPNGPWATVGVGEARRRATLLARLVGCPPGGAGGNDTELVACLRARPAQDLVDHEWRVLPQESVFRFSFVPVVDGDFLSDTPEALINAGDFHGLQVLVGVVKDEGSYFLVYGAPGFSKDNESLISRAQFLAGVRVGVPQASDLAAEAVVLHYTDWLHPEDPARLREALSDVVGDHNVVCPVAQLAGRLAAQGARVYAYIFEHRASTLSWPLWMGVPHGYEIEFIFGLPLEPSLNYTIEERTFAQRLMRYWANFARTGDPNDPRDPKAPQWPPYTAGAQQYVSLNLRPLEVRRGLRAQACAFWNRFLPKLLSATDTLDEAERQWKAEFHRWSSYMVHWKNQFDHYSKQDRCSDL
Procedure: Fluorescence was measured in a Fluostar Optima plate reader (BMG). Measurements were carried out in 100 μl solution volume, in 96-well plates. The buffer used was 1 mM Tris/HCl, pH 8.0. 5 μM AChE was incubated, at least 6 hours, with the molecule at different concentrations. 20 μM propidium iodide was added 10 min before fluorescence measurement. The excitation wavelength was 485 mn and that of emission 620 nm.

[3] = SH-SY5Y, 24 hours exposure, LDH

T2 sequence (P06276 29-602): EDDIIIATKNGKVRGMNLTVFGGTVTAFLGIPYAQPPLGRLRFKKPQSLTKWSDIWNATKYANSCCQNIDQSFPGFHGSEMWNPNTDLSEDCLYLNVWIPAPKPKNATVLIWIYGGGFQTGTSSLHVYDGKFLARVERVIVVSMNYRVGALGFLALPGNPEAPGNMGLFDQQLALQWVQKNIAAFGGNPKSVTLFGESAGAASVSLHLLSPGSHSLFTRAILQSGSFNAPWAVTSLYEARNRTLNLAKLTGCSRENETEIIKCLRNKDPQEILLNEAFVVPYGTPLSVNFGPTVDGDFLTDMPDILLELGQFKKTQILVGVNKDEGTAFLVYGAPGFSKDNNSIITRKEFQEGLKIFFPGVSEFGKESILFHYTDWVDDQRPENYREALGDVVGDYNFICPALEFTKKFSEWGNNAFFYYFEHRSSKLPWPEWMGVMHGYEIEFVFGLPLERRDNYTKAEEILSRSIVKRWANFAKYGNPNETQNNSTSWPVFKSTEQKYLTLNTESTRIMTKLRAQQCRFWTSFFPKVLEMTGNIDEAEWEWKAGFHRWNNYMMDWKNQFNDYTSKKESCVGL

SMILES	% inhibition VDCC (concentration) (VDCC; 10^−5 M) [%]	Toxicity (in words) [2, 3]	inhibition at 30 µM (BuChE from human serum) [%]	inhibition at 30 µM [1] [%]	% inhibition VDCC (concentration) (VDCC; 1.8 × 10^−5 M) [%]	Toxicity [2, 3] [µM]	also measured
COC1=C(Br)[C@@H](O)[C@]2(C=C1Br)CC(C(=O)NCCc1cnc[nH]1)=NO2 [Compound 6]	18 ± 10	Not toxic					inhibition at 100 µM ([1]; 10^−4 M): 0%
COC1=C(Br)[C@H](O)[C@@]2(C=C1Br)CC(C(=O)NCCCCNC(=O)C1=NO[C@]3(C=C(Br)C(OC)=C(Br)[C@@H]3O)C1)=NO2 [Compound 3, Aerothionin]			13 ± 1	12 ± 1	75 ± 17		Toxicity ([2]; human, 24 h): 18 µM
COC1=C(Br)[C@@H](O)[C@]2(C=C1Br)CC(C(=O)NCCc1cc(Br)c(OCCCNC(=O)C3=NO[C@]4(C=C(Br)C(OC)=C(Br)[C@@H]4O)C3)c(Br)c1)=NO2 [Compound 5, 11,19-dideoxyfistularin]			57 ± 7	63 ± 3	34 ± 14	>100	Propidium competition (30 μM) (AChE peripheral site): YES
COC1=C(Br)[C@H](O)[C@@]2(C=C1Br)CC(C(=O)NCCCCCNC(=O)C1=NO[C@]3(C=C(Br)C(OC)=C(Br)[C@@H]3O)C1)=NO2 [Compound 4, Homoaerothionin]			10 ± 1	9 ± 4	95 ± 4	6	Propidium competition (30 μM) (AChE peripheral site): YES
COC1=C(Br)[C@H](O)[C@](O)(CC#N)C=C1Br [Compound 2, Aeroplysinin-1]			0	19 ± 3		6	% inhibition VDCC (concentration) (VDCC; concentration not given): 0%
COC1=C(Br)[C@@H]2OC(=O)C[C@]2(O)C=C1Br [Compound 1, Aeroplysinin-2]			0	7 ± 1		0.6	% inhibition VDCC (concentration) (VDCC; concentration not given): 0%
COC1=C(Br)[C@@H](O)[C@]2(C=C1Br)CC(C(=O)NCCCOc1c(Br)cc(CCN)cc1Br)=NO2 [Compound 7]	67 ± 14.5	Not toxic					inhibition at 100 µM ([1]; 10^−4 M): 9.5 ± 3%; inhibition at 10 µM ([1]; 10^−5 M): 5 ± 3%
COC1=C(Br)[C@@H](O)[C@]2(C=C1Br)CC(C(=O)NCCCOc1c(Br)cc(C/C(=N\O)C(=O)NCCc3cnc[nH]3)cc1Br)=NO2 [Compound 8]	96 ± 3	Not toxic					inhibition at 100 µM [1]: 0%; % inhibition VDCC (concentration) (VDCC; 10^−6 M): 48%; % inhibition VDCC (concentration) (VDCC; 10^−7 M): 9%
